# Measurements: patent US6525059B1, “Substituted pyrazoles as p38 kinase inhibitors” (G. D. Searle & Company, priority 1998, dated 2003)
# pIC50: −log10 of the molar value. Structures can show the parent of a compound that is named as a salt. Where two headings read alike, the source gives them in different places.
# How the values were obtained:
# human TNF = assay: TNF inhibition: human whole blood assay; type: cell-based; details: for inhibition at 5 µM: read-out: Human Whole Blood % Inhib @ conc.
# Experimental: Human peripheral blood is obtained in heparinized tubes. A 190 μL aliquot of blood is placed in each well of a 96 well u-bottom plate. […] After one hour of incubation at 37° C., […] of lipopolysaccharide (Salmonella typhosa, Sigma) in phosphate buffered saline is added resulting in a final concentration of […]. After four to five hours of incubation at 37° C., the supernatants are harvested and assayed at 1:10 or 1:20 dilutions for human TNF using ELISA.
# TNF-α = assay: Rat assay: LPS-challenged rats, serum TNF-α by ELISA; type: in vivo; details: for inhibition in vivo at 5 mg/kg / inhibition in vivo at 20 mg/kg: Rattus norvegicus, po
# Experimental: The efficacy of the novel compounds in blocking the production of TNF also was evaluated using a model based on rats challenged with LPS. Male Harlen Lewis rats [Sprague Dawley Co.] were used in this model. Each rat weighed approximately 300 g and was fasted overnight prior to testing. Compounds administration was typically by oral gavage (although intraperitoneal, subcutaneous and intravenous administration were also used in a few instances) 1 to 24 hours prior to the LPS challenge. Rats were administered 30 μg/kg LPS [salmonella typhosa, Sigma Co.] intravenously via the tail vein. Blood was collected via heart puncture 1 hour after the LPS challenge. Serum samples were stored at −20° C. until quantitative analysis of TNF-α by Enzyme Linked-Immuno-Sorbent Assay (“ELISA”) [Biosource]. Additional details of the assay are set forth in Perretti, M., et al., Br. J. Pharmacol. (1993), 110, 868-874, which is incorporated by reference in this application.
# In vivo assessment of the ability of the compounds to inhibit LPS-stimulated TNF release in the rat is shown in the column identified as:
# wherein in the dose is milligram per kilogram (mpk) administered by oral gavage and the predose time indicates the number of hours before LPS challenge when the compound is administered.
# human p38 kinase alpha = biological target: T1, human p38 kinase alpha (Homo sapiens, UniProt Q16539); assay: p38 kinase in vitro assay, phosphorylation of biotinylated PHAS-I with gamma 32P-ATP; type: biochemical; details: read-out: P38 alpha kinase IC50
# T1 construct: The coding region of the human p38a cDNA was obtained by PCR-amplification from RNA isolated from the human monocyte cell line THP.1; GST (N); made in house; host or cells: E. coli DH10B
# Outline: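 Radiometric filter-capture read-out: streptavidin plates trap biotin-PHAS-I labelled by activated (MKK6) human p38α from γ-32P-ATP. Buffer 25 mM HEPES pH 7.5, 10 mM magnesium acetate, 50 μM cold ATP; reactions 1 h or overnight at 30 °C; inhibitors 10-fold dilutions 100 to 0.001 μM, triplicates, 1% DMSO.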
# [1] = Homo sapiens, Table 9, human whole blood, LPS, read-out: TNF Inhibition-Human Whole Blood Assay
# [2] = Homo sapiens, TNF production, LPS-stimulated human whole blood, read-out: Human Whole Blood IC50
# [3] = 5 mpk oral gavage, 4 h before LPS challenge, read-out: Rat LPS Model % Inhibition @ dose @ predose time
# [4] = TNF production, LPS-stimulated human whole blood
# T1 sequence (Q16539 whole entry): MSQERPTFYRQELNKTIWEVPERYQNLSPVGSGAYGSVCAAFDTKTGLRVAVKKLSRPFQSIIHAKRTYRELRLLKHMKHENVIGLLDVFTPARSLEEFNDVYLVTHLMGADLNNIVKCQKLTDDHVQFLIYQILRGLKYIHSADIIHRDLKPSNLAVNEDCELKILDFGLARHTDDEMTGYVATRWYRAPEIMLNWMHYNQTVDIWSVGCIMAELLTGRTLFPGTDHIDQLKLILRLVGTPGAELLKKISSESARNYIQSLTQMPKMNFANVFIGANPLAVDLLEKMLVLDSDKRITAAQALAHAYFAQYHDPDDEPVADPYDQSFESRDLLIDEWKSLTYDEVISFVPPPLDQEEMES
Compound,pIC50 (human TNF; [2]),pIC50 (human p38 kinase alpha),other results
"O=C(CO)N1CCC(c2[nH]nc(-c3ccc(Cl)cc3)c2-c2ccncn2)CC1 [Example D-2, N-(2-Hydroxyacetyl)-5-(4-piperidyl)-4-(4-pyrimidyl)-3-(4-chlorophenyl)pyrazole hydrochloride]",–,–,"pIC50 (human TNF; Homo sapiens, TNF production, LPS-stimulated human whole blood, read-out: HWB IC50): 5.75; ratLPS/% Inh @1.0 (mg/kg) (TNF-α; 1.0 mg/kg oral gavage, 4 hours before LPS challenge, hydrochloride): 89.0%; inhibition in vivo at 5 mg/kg (TNF-α; 5.0 mg/kg oral gavage, 4 hours before LPS challenge, read-out: ratLPS/% Inh @5.0 (mg/kg)): 95%"
"CCN1CCC(Nc2cc(-c3c[nH]nc3-c3ccc(F)cc3)ccn2)CC1 [Example A-352, N-(1-ethyl-4-piperidinyl)-4-[3-(4-fluorophenyl)-1H-pyrazol-4-yl]-2-pyridinamine]",–,–,"pIC50 (human TNF; [1]): 5.01; inhibition in vivo at 20 mg/kg (TNF-α; Table 9, dose 20 mg/kg): 36%"
"N[C@H]1CC[C@@H](c2[nH]nc(-c3ccc(C(F)(F)F)cc3)c2-c2ccncc2)CC1 [Example C-101, 5-cis-(4-AMINOCYCLOHEXYL)-4-(4-PYRIDYL)-3-[4-(TRIFLUOROMETHYL)PHENYL]PYRAZOLE]",5.43,–,inhibition in vivo at 5 mg/kg (TNF-α; [3]): 52%
"CC1CN(c2[nH]nc(-c3ccc(Cl)cc3)c2-c2ccncc2)CC(C)N1 (stereo not shown) [Example A-342, 1-[5-(4-chlorophenyl)-4-(4-pyridinyl)-1H-pyrazol-3-yl]-3,5-dimethylpiperazine]",–,–,"pIC50 (human TNF; Homo sapiens, Table 8, human whole blood, LPS, read-out: TNF Inhibition-Human Whole Blood Assay): 6.51; inhibition in vivo at 20 mg/kg (TNF-α; Table 8, dose 20.0 mg/kg): 98%"
CC(C)(N)C(=O)NCc1[nH]nc(-c2ccc(Cl)cc2)c1-c1ccncc1 [Example C-121],–,–,"IC50 (human TNF; Homo sapiens, read-out: Human Whole Blood IC50, μM): 15.3 µM; inhibition in vivo at 5 mg/kg (TNF-α; read-out: Rat LPS Model % Inhibition @ dose @ predose time): 39%"
CN1CCC(c2[nH]nc(-c3cccc(C(F)(F)F)c3)c2-c2ccncc2)CC1 [Example C-87],6.47,7.57,–
"Fc1ccc(-c2n[nH]c([C@H]3CCCN3)c2-c2ccncc2)cc1 [Example C-125, (R)-5-(2-PYROLIDINYL)-4-(4-PYRIDYL)-3-(4-FLUOROPHENYL)PYRAZOLE]",< 4.60,5.14,–
"OCCCCc1[nH]nc(-c2ccc(F)cc2)c1-c1ccncc1 [Example C-132, 5-[4-(1-HYDROXY)BUTYL]-4-(4-PYRIDYL)-3-(4-FLUOROPHENYL)PYRAZOLE]",–,7.07,inhibition at 5 µM (human TNF; [4]): 44%
"CN(C)[C@H]1CC[C@@H](c2[nH]nc(-c3ccc(C(F)(F)F)cc3)c2-c2ccncc2)CC1 [Example C-102, 5-cis-(4-N,N-DIMETHYLAMINOCYCLOHEXYL)-4-(4-PYRIDYL)-3-[4-(TRIFLUOROMETHYL)PHENYL]PYRAZOLE]",5.12,–,inhibition in vivo at 5 mg/kg (TNF-α; [3]): 72%
"COCC(=O)NC1CCC(c2[nH]nc(-c3ccc(Cl)cc3)c2-c2ccncc2)CC1 (stereo not drawn) [Example C-96, 5-cis-[4-N-(METHOXYACETYL)AMINOCYCLOHEXYL]-4-(4-PYRIDYL)-3-(4-CHLOROPHENYL)PYRAZOLE]",5.68,–,inhibition in vivo at 5 mg/kg (TNF-α; [3]): 38%
"O[C@H]1CC[C@H](Nc2cc(-c3c[nH]nc3-c3ccc(F)cc3)ccn2)CC1 [Example A-386, trans-4-[[4-[3-(4-fluorophenyl)-1-H-pyrazol-4-yl]-2-pyridinyl]amino]cyclohexanol]",–,–,"pIC50 (human TNF; [1]): 6.80; inhibition in vivo at 20 mg/kg (TNF-α; Table 9, dose 20 mg/kg): 91%"
CC(C)N1CCC(c2[nH]nc(-c3ccc(C(F)(F)F)cc3)c2-c2ccncc2)CC1 [Example C-85],< 4.60,6.24,–
"Fc1ccc(-c2n[nH]c(C3CCCNC3)c2-c2ccncc2)cc1 (stereo not shown) [Example C-90, 5-(3-piperidyl)-4-(4-pyridyl)-3-(4-fluorophenyl)pyrazole]",6.32,7.43,–
C=CCN1CCC(c2[nH]nc(-c3ccc(Cl)cc3)c2-c2ccncc2)CC1 [Example C-80],–,8.10,inhibition at 5 µM (human TNF; [4]): 51%
C#CCN1CCC(c2[nH]nc(-c3ccc(Cl)cc3)c2-c2ccncc2)CC1 [Example C-81],–,7.43,inhibition at 5 µM (human TNF; [4]): 40%
Fc1ccc(-c2n[nH]c([C@@H]3CCCNC3)c2-c2ccncc2)cc1 [Example C-127],6.57,7.42,–
Clc1ccc(-c2n[nH]c(C3CCN(Cc4nccs4)CC3)c2-c2ccncc2)cc1 [Example C-82],5.14,6.82,–
"Fc1ccc(-c2n[nH]c([C@@H]3CCCN3)c2-c2ccncc2)cc1 [Example C-123, (S)-5-(2-PYROLIDINYL)-74-(4-PYRIDYL)-3-(4-FLUOROPHENYL)PYRAZOLE]",< 4.60,6.17,–
